# Test: Solubilisation of resveratrol in the self emulsifying cosmetic base (mixing at 30-40° C.)
# Format: physicochemical
# Details: Example 2, no co-emulsifier, continuous mixing at 30-40° C.
# Description: A self emulsifying cosmetic base exempt of co-emulsifier was prepared by dissolving resveratrol in trilaureth-4 phosphate by continuous mixing at moderate temperature (30-40° C.). […] In all cases spontaneously an aqueous emulsion was formed which upon separation (after >1 week) could be easily re-formed by mere shaking.
structure (smiles),measurement,value
Oc1ccc(/C=C/c2cc(O)cc(O)c2)cc1 [resveratrol],appearance after dissolving resveratrol in trilaureth-4 phosphate,clear solution

# From patent publication US9283161B2, “Aqueous cosmetic compositions containing resveratrol solubilized in a liquid phosphate ester surfactant” (DSM IP ASSETS B.V., priority 2011, dated 2016)
